Source: US8680076B2, “Methods of treatment, improvement and prevention using haloaryl substituted aminopurines” (Signal Pharmaceuticals, LLC, priority 2010, dated 2014)
“Also recorded” adds a separate entry of the source.

How the values were obtained:
Tsk-1 mice = test: Tight skin-1 (Tsk-1) mouse model of systemic sclerosis; type: in vivo; details: for decrease of number of myofibroblasts / reduction of hypodermal thickening: 6 weeks; for reduction of hypodermal thickening: compared to untreated mice
Procedure: The antifibrotic effects of the JNK inhibitor Compound JNKi-1 were tested in a murine tight skin-1 (Tsk-1) model of systemic sclerosis. In this model, a dominant mutation in the fibrillin 1 gene (Fbn1^Tsk+/−) leads to a systemic sclerosis-like disease with inflammatory infiltrates and massive fibrosis of the skin (Akhmetshina A, Venalis P, Dees C, Busch N, Zwerina J, Schett G, et al., Treatment with imatinib prevents fibrosis in different preclinical models of systemic sclerosis and induces regression of established fibrosis, Arthritis Rheum. 2009; 60(1):219-24).
Male and female TSK-1 mice were used. Mice were fed a standard diet with water ad libitum. The room temperature was kept constant at 22° C. with a humidity of 60%.
Compound JNKi-1 was dissolved in 0.5% carboxymethylcellulose (CMC)/0.25% Tween 80 in water. As vehicle control a solution of 0.5% CMC/0.25% Tween 80 in water was used. Imatinib mesylate was dissolved in 0.9% NaCl at a concentration of 50 mg/kg/day in a total volume of 100 μL.
Groups of Tsk-1 mice (n=4/sex/group) were assigned to one of five treatment groups: • Untreated wildtype (Fbn1^Tsk−/−) group received 0.5% CMC/0.25% Tween 80 in water orally (PO) twice daily (BID). • Untreated Fbn1Tsk+/− mice received 0.5% CMC/0.25% Tween 80 in water orally BID. • Compound JNKi-1-treated Fbn1^Tsk+/− received 50 mg/kg orally BID. • Compound JNKi-1-treated Fbn1^Tsk+/− received 150 mg/kg orally BID. • Imatinib mesylate-treated Fbn1^Tsk+/− group received 50 mg/kg/day administered intraperitoneally (IP).
Treatments with Compound JNKi-1 and control compound were started at Week 4. After 6 weeks of treatment, mice were sacrificed, and the antifibrotic effects from each treatment were analyzed.
Antifibrotic effects were determined by measuring the dermal thickness and quantifying the numbers of myofibroblasts in the lesional skin. Dermal thickness was determined by measuring the distance from the epidermal/dermal border to the dermal/subdermal border in H & E-stained sections at four different sites. The number of myofibroblasts was quantified by staining for alpha smooth muscle actin (α-SMA) in paraffin-embedded sections. Data are expressed as mean±standard error of the mean (SEM). SPSS17.0 software and the Mann-Whitney-U-test were used for statistical analyses. A p-value of less than 0.05 was considered statistically significant.

[1] = test system: fibroblasts from SSc patients; test: TGF-β and PDGF-induced total collagen secretion (SirCol assay); type: cell-based, human; details: 1 μM
Procedure: Dermal fibroblasts from two SSc patients were treated for 24 hours (hr) with Compound JNKi-1 at concentrations from 0.1 μM to 10 μM (0.5% DMSO/99.5% cell culture media). To study the effect of Compound JNKi-1 on growth factor-induced collagen expression, recombinant transforming growth factor beta (TGF-β) (final concentration of 10 ng/mL) or platelet-derived growth factor-BB (PDGF-BB) (final concentration of 40 ng/mL) were added to cells 2 hr after the addition of JNK-inhibitor Compound JNKi-1 for 24 hr. The expression of collagen proteins was analyzed by SirCol assay. The messenger ribonucleic acid (mRNA) levels of extracellular proteins were measured by real-time polymerase chain reaction (PCR). The β-actin mRNA was used as internal control for the measurement of Collagen 1a1 mRNA using PCR. Fibroblast proliferation assay was performed in the presence or absence of 1 μM Compound JNKi-1 for 24 hr with the (3-(4,5-Dimethylthiazol-2-yl)-2,5-diphenyltetrazolium bromide) (MTT) assay.
The isolation of fibroblasts from human SSc patients and culture conditions used in this study have been previously described (Akhmetshina A, Dees C, Pileckyte M, Maurer B, Axmann R, Jüngel A, et al., Dual inhibition of c-abl and PDGF receptor signaling by dasatinib and nilotinib for the treatment of dermal fibrosis, FASEB J. 2008; 22(7):2214-22). […] Data are expressed as mean±standard error of the mean (SEM). […]

Compound: O[C@H]1CC[C@H](Nc2ncc3nc(Nc4c(F)cc(F)cc4F)n([C@H]4CCOC4)c3n2)CC1 [JNKi-1, 4-((9-((3S)-tetrahydro-3-furanyl)-8-((2,4,6-trifluorophenyl)amino)-9H-purin-2-yl)amino)-trans-cyclohexanol]
- decrease of number of myofibroblasts (Tsk-1 mice; 50 mg/kg orally BID): 68%±28%
- reduction of hypodermal thickening (Tsk-1 mice; 50 mg/kg orally BID): 67%±5%
- decrease of number of myofibroblasts (Tsk-1 mice; 150 mg/kg orally BID): 99%±9%
- reduction of hypodermal thickening (Tsk-1 mice; 150 mg/kg orally BID): 85%±7%
- hypodermal thickening / myofibroblast counts (in words) (Tsk-1 mice; 50 and 150 mg/kg orally BID): dose dependently reduced; also recorded: more pronounced; also recorded: dose-dependently reduce
- TGF-β and PDGF-induced collagen secretion [1]: modestly inhibited
